According to a melting point compilation (Tetko et al.; mined from patent text by program, amines drawn as free bases though some values may be those of a salt):

SMILES | melting point
O=c1[nH]c2cc(Cl)c(Cl)cc2cc1P(=O)(O)O | > 300 °C
CCOC(=O)C(C)(C)Sc1ncnc2c(O)n(C)nc12 | 155 to 156 °C
Cn1ccc2ccccc2c(=NO)c1=O | 225 to 226 °C
COc1ccccc1N1CCN(CC(O)COc2ccc3cc(C(C)=O)oc3c2)CC1 (stereo unspecified) | 122 to 125 °C
COC(=O)c1ccc2[nH]c(=O)n(CCCCN3CC=C(c4ccccc4)CC3)c(=O)c2c1 | 138 °C
Clc1ccc2c(c1)C(n1ccnc1)c1ccccc1CS2 (stereo unspecified) | 175 to 176 °C
COc1ccc(C2CC(=O)N(C)C2)cc1OC (stereo unspecified) | 69 °C
Cc1csc(N=CN(C)C)n1 | 54 to 56 °C
Cn1nc(Cl)cc(Nc2ccn(C3CN(C(=O)OC(C)(C)C)C3)n2)c1=O | 154 to 156 °C
Cc1ccc(S(=O)(=O)Nc2c(CCCCCCC(=O)O)ccc3ccccc23)cc1 | 128 to 133 °C
CC(C)c1nn(-c2ccc(C(F)(F)F)cn2)cc1CCCCOc1cc(CCC(=O)O)n(C)n1 | 113 to 114 °C
CCOC(=O)c1c(C(F)F)nc(C(F)(F)F)c(C(=O)OCC)c1C1CC1 | 30 to 32 °C
COC(=O)c1ccc(NC(=O)c2sc3ccc(OC)cc3c2Cl)cc1 | 205 to 206 °C
Cn1ncc2cc3ncc(-c4ccc(Cl)s4)nc3cc21 | 225 to 227 °C
CCOC(=O)c1nnn(-c2ccccc2)c1N | 124 to 126 °C
CS(=O)(=O)N1Cc2cccc(-c3ccc4cnc(Nc5ccc(C6CCN(CC(N)=O)CC6)cc5)nn34)c2C1 | 244 to 247 °C
CCN(CC)C(=O)COC(=O)c1ccc(O)cc1 | 148 to 149 °C
Cc1nc[nH]c1CSCCC1=NCCS(=O)(=O)N1 | 146 to 147 °C
CCOC(=O)Oc1cc2occ(C(=O)O)c(=O)c2cc1OC(=O)OCC | 107 to 109 °C
COc1cc2c(c3c1OC(C)(C)C3)C(c1cccc(N3C(=O)c4ccccc4C3=O)c1)=NC(C)(C)C2 | 162 to 168 °C
O=Cc1ccc2c3ccccc3c3ccccc3c2c1 | 160 to 162 °C
CCCCCCCCCCCCCCCCCCN(C)CC(O)CO (stereo unspecified) | 59 °C
CCOP(=O)(NN=C(c1ccc(Cl)cc1)c1ccc(OS(C)(=O)=O)cc1)OCC | 90 to 91 °C
COc1ccc(NC(=O)c2ccccc2-c2cccc(OC)c2)cc1 | 107 to 109 °C
Cc1nc(-c2cccnc2)c(C)[nH]1 | 179 to 181 °C
O=c1[nH]c(=O)n(C2OC(CO)C(O)C2F)cc1I (stereo unspecified) | 216 to 217 °C

SMILES | melting point
CCCCCCCCCCCCCCCCCC#CC(C(=O)OCC)C(=O)OCC | 33 to 34 °C
CC(=O)OCC(=O)[C@@]1(O)CCc2c(O)c3c(c(O)c2C1)C(=O)c1cccc(O)c1C3=O | 215 to 217 °C
CNC(=S)N(Cc1cccnc1)N(C)C | 101 to 102 °C
CCOC(=O)C1=C(N)NC(c2ccccc2)=CC1c1cccc(Cl)c1 (stereo unspecified) | 161 °C
Cc1ccc(-c2nnc(N3CCCC(O)C3)nc2-c2ccc(C)cc2)cc1 (stereo unspecified) | 122 to 125 °C
C[C@@H]1CN(C(=O)OC(C)(C)C)C[C@H]2Cc3cc(F)c(CO)nc3N21 | 91 to 93 °C
COC1=C(OC)C(=O)C2=C(CCC(CCOc3ccc(NC(C)=O)cc3)CC2)C1=O | 151 to 154 °C
c1ccc(-c2cc3ccccc3s2)nc1 | 124 to 126 °C
O=C(c1ccc(Cl)c(Cl)c1)c1ccc(O)c(Cl)c1Cl | 179 to 180 °C
CC(=O)c1ccc(OCCCc2ccccc2)cc1 | 80 to 81 °C
COc1cc(C)c(C=C2COCC(=Cc3cc(C)c(OC)cc3C)C2=O)cc1C | 182 to 184 °C
CC1(C)CC2(CC(C)(C)c3ccc(Oc4cccc([N+](=O)[O-])c4)cc32)c2cc(Oc3cccc([N+](=O)[O-])c3)ccc21 | 174 to 175 °C
CC(=O)NN1CCN(CCc2c[nH]c3ccccc23)CC1 | 183 to 186 °C
COc1ccc2c(c1)C13CCN(C#N)C(C2)C1(OC)CCC(=O)C3 (stereo unspecified) | 172 to 176 °C
CCn1c(=O)c2c(nc(/C=C/c3cccc(O)c3O)n2C)n(CC)c1=O | 242 to 244 °C
CCOC(=O)C(=O)Nc1cccc(C#N)c1 | 149 to 150 °C
CCCc1nc2c(N)nc(C)c(C)c2n1CCCCCS(=O)(=O)c1ccc(Cl)cc1 | 147 to 149 °C
CN1C(=O)NC(=O)C(C=O)C1=O (stereo unspecified) | 197 to 199 °C
CC1(C)CC(=O)c2c(C3CCC3)sc(-c3nccs3)c2C1 | 126 to 128 °C
CN1CCN(C(=O)c2ccc(Nc3cc(NC(=O)Nc4c(Cl)cc(Cl)cc4Cl)ncn3)cc2)CC1 | 165 to 175 °C
COc1ccc2ccc(N3C(=O)c4ccccc4C3OCC(=O)N(C)C)nc2n1 (stereo unspecified) | 166 °C
CC(C)(C)c1cc(/C=C/C(=O)O)n(Cc2ccc(C(F)(F)F)cc2Cl)n1 | 175 to 176 °C
Nc1ncnc2c1c(-c1ccc(Oc3ccccc3CN3CCOCC3)cc1)cn2C1CCOC1 (stereo unspecified) | 169 to 171 °C
Cc1c(F)c([N+](=O)[O-])cc2oc(=O)[nH]c12 | 194 to 196 °C
COc1ccc(OC)c(CN[C@H]2[C@H]3CCN(C[C@@H]3C(N)=O)[C@H]2C(c2ccccc2)c2ccccc2)c1 (relative stereo) | 127 to 129 °C
COc1ccc(N2C(=O)CC(Cl)C2=O)cc1 (stereo unspecified) | 142 to 143 °C

SMILES | melting point
CNCC(O)C1=CSC2C=CC=CC12 (stereo unspecified) | 98 to 102 °C
COc1cccc(NC(=O)N[C@H]2C[C@@](N)(C(=O)O)[C@@H]3[C@@H](C(=O)O)[C@@H]32)c1 (relative stereo) | > 250 °C
CCOC(=O)c1cc(C)c(C(=O)OCC)n1C | 48 to 48.5 °C
CC(C)C(NC(=O)OCc1nccs1)C(=O)NC(Cc1ccccc1)C(O)C(Cc1ccccc1)NC(=O)C(NC(=O)OCc1nccs1)C(C)C (stereo unspecified) | 92 to 93 °C
CNC1CC=C(c2c[nH]c3ccc(NC(=N)c4cccs4)cc23)CC1 (stereo unspecified) | 167 to 169 °C
COc1ccc2c(c1)cc1c3c(cccc32)C(=O)OC1=O | 292 to 293 °C
O=C(Cc1ccc2ccccc2c1)N[C@H]1C[C@H](C(=O)O)Nc2cc(Cl)cc(Cl)c21 (relative stereo) | 217 to 219 °C
COC(=O)[C@H](COCc1ccccc1)NC(=O)Nc1n[nH]c(=S)s1 | 84 to 86 °C
CC1(C)OC(=S)Nc2c(Br)cc(-c3cc(F)cc(C#N)c3)cc21 | 219 to 220 °C
O=C(c1ccc2c(c1)OCCO2)c1ccc2noc(-c3cccc(Cl)c3)c2c1 | 195 °C
O=c1oc(-c2ccc(OCc3ccc(Cl)c(Cl)c3)cc2)cc(O)c1SCCc1ccccc1 | 168 to 169 °C
O=c1[nH]c2cc(Cl)cc(Cl)c2c(=O)n1Cc1ccncc1 | 354 to 364 °C
O=Cc1ccc2cc(OCc3ccccc3)ccc2c1 | 107 to 108 °C
O=S(=O)(NS(=O)(=O)c1ccc(CCBr)cc1)c1ccccc1 | 148 to 150 °C
Cc1ccn2c(=Nc3ccncc3)snc2c1 | 144 to 145 °C
CO[Si](OC)(OC)O[Si](OC)(OC)O[Si](OC)(OC)OC | < -70 °C
CN1CCC(Nc2ccccc2C(=O)c2ccccc2Cl)CC1 | 128 to 129 °C
CCN1C(=O)C(C(=O)Nc2ccc(F)cc2)c2cc3c(cc21)CC(C)O3 (stereo unspecified) | 196 to 197 °C
Cc1c(NC(=O)c2ccc(-c3cc4ccccc4o3)cc2F)ccc2cc(CN3CCCC3)cnc12 | 202 to 203 °C
CS(=O)(=O)c1ccc(Cc2n[nH]c3c2c(=O)n(-c2ccccc2)c2ncccc32)cc1 | 312 °C
CCCCc1nc2c(N)nc3cc(/C=C/C(=O)OC)ccc3c2n1CC(C)C | 193 to 194 °C
Oc1cccc(F)c1OC(COCc1ccccc1)C(Cl)COCc1ccccc1 (stereo unspecified) | 77 to 79 °C
Cc1ccc2ccc(C(=O)O)nc2c1 | 160 to 162 °C
CS(=O)(=O)Nn1c(=O)[nH]c2cc(C(F)(F)F)c(-c3ccc(C#N)cc3)cc2c1=O | 145 to 147 °C
COc1ccc2cc([C@H](C)C(=O)OC[C@](C)(O)CO)ccc2c1 | 65 to 66 °C
Cc1ccc(S(=O)(=O)OCC2Cc3cccc(-c4ccccc4Cl)c3O2)cc1 (stereo unspecified) | 100 to 103 °C

SMILES | melting point
O=C(/C=C/c1ccc(S(=O)(=O)N2CCN(c3cccc(C(F)(F)F)c3)CC2)cc1)NO | 178 to 179 °C
COc1ccc(-c2csc(Nc3ccc(C(F)(F)F)cn3)n2)cc1OC | 244 to 247 °C
CCS(=O)c1cc2c(cc1OC)CCn1c-2cc2c1C(=O)N(C(C)(C)C)CCCC2 (stereo unspecified) | 185 to 187 °C
NC(=O)c1c(F)ccc([N+](=O)[O-])c1F | 134 to 135 °C
C=CCN1C(=O)C2CC2(c2ccc(NC(C)=O)cc2)C1=O (stereo unspecified) | 113 to 116 °C
COc1cc(NC(=O)c2ccc(Cl)cc2)c(C(N)=O)cc1OC | 120 to 122 °C
CCCn1cc(-c2ccncc2)cc(N)c1=O | 171 to 173 °C
CCC(CC)CC(=O)C1=C(O)c2cc(OC)c(OC)c(OC)c2C(O)(c2ccc(OC)c(OC)c2)C1C(=O)OC (stereo unspecified) | 132 to 133 °C
CC(=O)OCC1=CC(=O)C=C2CCC3C4CCC(=O)C4(C)CCC3C21C (stereo unspecified) | 121 to 123 °C
O=C(NCCc1cccs1)c1cc(Cl)cc(Cl)c1 | 100 to 102 °C
Nc1c([N+](=O)[O-])cc(F)c(F)c1Cl | 86 to 88 °C
N#Cc1cnn(-c2ccc(C(F)(F)F)cc2Cl)c1Br | 127 °C
CC(=O)N(C)C(=N[N+](=O)[O-])N(Cc1cnc(Cl)s1)C(C)=O | 72 to 74 °C
COC(=O)CC[C@H](NC(=O)c1ccc(OCc2ccccc2)cc1)C(=O)OC | 108 to 109 °C
O=C(Cl)c1csc(=O)[nH]1 | 184 °C
Cc1cc(C)cc(N(CCCC(=O)O)Cc2ccc3nc(NCCCN4CCOCC4)n(Cc4nc(C)ccc4O)c3c2)c1 | 121 °C
CNC(=S)Nc1ccccc1-c1ccccc1 | 152 to 153 °C
Cc1c(-c2ccccc2)oc2c(S(=O)(=O)CCCCl)cccc2c1=O | 160 to 163 °C
Nc1ccc2c(c1)S(=O)(=O)N(CCCCN1CCN(c3ncccn3)CC1)C2=O | 150 to 151 °C
CCOC(=O)c1c(OCC)nsc1NC(=O)N(C)C | 164 to 165 °C
COc1ccc(-c2cc(C#N)c3cc(O)ccc3c2)cc1F | 214 to 216 °C
CCc1nc2c(C)cc(C)nc2n1Cc1ccc(C(c2ccccc2)C(C(=O)O)C(=O)O)cc1 (stereo unspecified) | 137 to 142 °C
O=C(CN1CCC(Cc2ccc(F)cc2)CC1)Nc1ccc2c(c1)NC(=O)CO2 | 185 to 187 °C
